Measurements as given in patent US7632811B2, “Analogs of parathyroid hormone” (Societe de Conseils de Recherches et D'Applications …, priority 1995, dated 2009).
Where two headings read alike, the source gives them in different places. Non-standard residues stand in square brackets, D forms with d. Residues, ends and D or L forms follow the SMILES beside them. Cha = N[C@@H](CC1CCCCC1)C(=O)O; Ac6c = NC1(C(=O)O)CCCCC1; Nle = CCCC[C@H](N)C(=O)O; Aib = CC(C)(N)C(=O)O

Biological target: T1, PTH receptor present on SaOS-2 (human osteosarcoma cells) (Homo sapiens, UniProt Q03431)
T1 construct: host or cells: SaOS-2 human osteosarcoma cells (intact, confluent monolayers)
T1 sequence (Q03431 27-593): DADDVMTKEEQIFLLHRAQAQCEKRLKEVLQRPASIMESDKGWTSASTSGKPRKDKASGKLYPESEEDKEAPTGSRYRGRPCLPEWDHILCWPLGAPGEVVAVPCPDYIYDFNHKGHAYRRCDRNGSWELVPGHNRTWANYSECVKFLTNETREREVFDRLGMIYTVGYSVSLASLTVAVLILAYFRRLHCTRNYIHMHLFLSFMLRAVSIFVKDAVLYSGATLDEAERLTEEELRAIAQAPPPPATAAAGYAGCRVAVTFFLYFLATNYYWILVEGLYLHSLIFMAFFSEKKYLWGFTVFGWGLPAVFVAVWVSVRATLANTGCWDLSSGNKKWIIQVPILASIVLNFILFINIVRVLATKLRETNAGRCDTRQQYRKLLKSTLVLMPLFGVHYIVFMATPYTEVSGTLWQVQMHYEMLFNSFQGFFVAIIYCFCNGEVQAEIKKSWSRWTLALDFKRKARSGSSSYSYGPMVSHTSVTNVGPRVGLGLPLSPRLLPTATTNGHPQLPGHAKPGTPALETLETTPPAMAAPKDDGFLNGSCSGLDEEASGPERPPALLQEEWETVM
Assay: Binding to PTH receptor on SaOS-2 cells (competition with mono-125I-[Nle8,18,Tyr34(3-125I)]bPTH(1-34)NH2)
Details: 2 hrs at room temperature, read-out: Kd (half maximal inhibition of binding of mono-125I-[Nle8,18, Tyr34(3-125I)]bPTH(1-34)NH2)
Method in brief: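 Confluent SaOS-2 cells in 5% FBS RPMI were incubated 2 h at room temperature with 10×10^4 cpm mono-125I-[Nle8,18,Tyr34(3-125I)]bPTH(1-34)NH2 plus competing peptide at 10^−11 to 10^−4 M. After washing, cell-bound radioactivity was counted; Kd taken as half-maximal inhibition of tracer binding.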

Kd (Table II) [nM] | Kd (Table I) [nM] | Structure (SMILES)
230 |  | CC[C@H](C)[C@H](NC(=O)[C@H](CO)NC(=O)[C@H](CCCCN)NC(=O)CNC(=O)[C@H](CCCCN)NC(=O)[C@H](CC(=O)O)NC(=O)[C@H](Cc1c[nH]cn1)NC(=O)[C@H](CC(C)C)NC(=O)[C@H](CC(C)C)NC(=O)[C@H](CCC(N)=O)NC(=O)[C@H](Cc1c[nH]cn1)NC(=O)[C@H](CCC(=O)O)NC(=O)[C@H](CO)NC(=O)[C@@H](NC(=O)[C@H](C)N)C(C)C)C(=O)N[C@@H](CCC(N)=O)C(=O)N[C@@H](CC(=O)O)C(=O)N[C@@H](CC(C)C)C(=O)N[C@@H](CCCNC(=N)N)C(=O)N[C@@H](CCCNC(=N)N)C(=O)N[C@@H](CCCNC(=N)N)C(=O)N[C@@H](CCC(=O)O)C(=O)N[C@@H](CC(C)C)C(=O)N[C@@H](CC(C)C)C(=O)N[C@@H](CCC(=O)O)C(=O)N[C@@H](CCCCN)C(=O)N[C@@H](CC(C)C)C(=O)N[C@@H](CC(C)C)C(=O)N[C@@H](CCC(=O)O)C(=O)NC1(C(=O)N[C@@H](CC(C)C)C(=O)N[C@@H](Cc2c[nH]cn2)C(=O)N[C@H](C(=O)N[C@@H](C)C(N)=O)[C@@H](C)O)CCCCC1 [[Glu^22,25,29, Leu^23,28,31, Lys^26, Ahc^30]hPTHrP(1-34)NH2] (H-AVSEHQLLHDKGKSIQDLRRRELLEKLLE[Ac6c]LHTA-NH2; N-terminus assumed)
 | 30 | CCCC[C@H](NC(=O)[C@H](CO)NC(=O)[C@H](CC(N)=O)NC(=O)[C@H](CC(C)C)NC(=O)[C@H](Cc1c[nH]cn1)NC(=O)[C@H](CCCCN)NC(=O)CNC(=O)[C@H](CC1CCCCC1)NC(=O)[C@H](CC(N)=O)NC(=O)[C@H](Cc1c[nH]cn1)NC(=O)[C@H](CCCC)NC(=O)[C@H](CC1CCCCC1)NC(=O)[C@H](CCC(N)=O)NC(=O)[C@@H](NC(=O)[C@H](CCC(=O)O)NC(=O)[C@H](CO)NC(=O)[C@@H](NC(=O)[C@@H](N)CO)C(C)C)[C@@H](C)CC)C(=O)N[C@@H](CCC(=O)O)C(=O)N[C@@H](CCCNC(=N)N)C(=O)N[C@H](C(=O)N[C@@H](CCC(=O)O)C(=O)N[C@@H](Cc1c[nH]c2ccccc12)C(=O)N[C@@H](CC(C)C)C(=O)N[C@@H](CCCNC(=N)N)C(=O)N[C@@H](CCCCN)C(=O)N[C@@H](CCCCN)C(=O)N[C@@H](CC(C)C)C(=O)N[C@@H](CCC(N)=O)C(=O)N[C@@H](CC(=O)O)C(=O)N[C@H](C(=O)N[C@@H](Cc1c[nH]cn1)C(=O)N[C@@H](CC(N)=O)C(=O)NC(C)(C)C(N)=O)C(C)C)C(C)C [[Cha^7,11, Nle^8,18, Aib^34]hPTH(1-34)NH2] (H-SVSEIQ[Cha][Nle]HN[Cha]GKHLNS[Nle]ERVEWLRKKLQDVHN[Aib]-NH2)
 | 4 | CC[C@H](C)[C@H](NC(=O)[C@H](CCC(=O)O)NC(=O)C(C)(C)NC(=O)[C@@H](NC(=O)[C@@H](N)CO)C(C)C)C(=O)N[C@@H](CCC(N)=O)C(=O)N[C@@H](CC(C)C)C(=O)N[C@@H](CCSC)C(=O)N[C@@H](Cc1c[nH]cn1)C(=O)N[C@@H](CC(N)=O)C(=O)N[C@@H](CC(C)C)C(=O)NCC(=O)N[C@@H](CCCCN)C(=O)N[C@@H](Cc1c[nH]cn1)C(=O)N[C@@H](CC(C)C)C(=O)N[C@@H](CC(N)=O)C(=O)N[C@@H](CO)C(=O)N[C@@H](CCSC)C(=O)N[C@@H](CCC(=O)O)C(=O)N[C@@H](CCCNC(=N)N)C(=O)N[C@H](C(=O)N[C@@H](CCC(=O)O)C(=O)N[C@@H](Cc1c[nH]c2ccccc12)C(=O)N[C@@H](CC(C)C)C(=O)N[C@@H](CCCNC(=N)N)C(=O)N[C@@H](CCCCN)C(=O)N[C@@H](CCCCN)C(=O)N[C@@H](CC(C)C)C(=O)N[C@@H](CCC(N)=O)C(=O)N[C@@H](CC(=O)O)C(=O)N[C@H](C(=O)N[C@@H](Cc1c[nH]cn1)C(=O)N[C@@H](CC(N)=O)C(=O)N[C@@H](Cc1ccccc1)C(N)=O)C(C)C)C(C)C [[Aib^3]hPTH(1-34)NH2] (H-SV[Aib]EIQLMHNLGKHLNSMERVEWLRKKLQDVHNF-NH2)
